This note sets out measurements from patent US11542492B2 (Celgene CAR LLC, priority 2009, dated 2023).

What is called IC50 is the point on the concentration scale where inhibition reaches its midpoint.

A value given as a limit tells only on which side of the number the result lay.

The target of assay [1] is T1, p120γ (PI3Kγ) (Homo sapiens, UniProt P48736).
T1 construct: purchased BPS Bioscience 40625
Description: HTRF assay, p120γ. The settings on record: PI3Kγ; read-out: PI3Kγ HTRF IC50 Inhibition Designation. It is filed as biochemical. An excerpt:
The protocol below describes an end-point, competition-binding HTRF assay used to measure inherent potency of test compounds against active p110α/p85α, p110β/p85α, p120γ enzymes. The mechanics of the assay platform are best described by the vendor (Millipore, Billerica, Mass.) on their website at the following URL: http://www.millipore.com/coa/tech1/74jt4z.
Briefly, Stop solution (Stop A, #33-007 and Stop B, #33-009; 3:1 ratio) and Detection Mix (DMC, #33-015 with DMA, #33-011 and DMB, #33-013; 18:1:1 ratio) were prepared as recommended by the manufacturer ˜2 hrs prior to use. Additionally, 1× reaction buffer (4× buffer stock #33-003), a 1.4× stock of enzyme from BPS Bioscience (San Diego, Ca) or Millipore (Billerica, Mass.) with di-C8-PIP2 lipid substrate (#33-005), and a 4×ATP solution (#A7699) Sigma/Aldrich (St. Louis, Mo.) were prepared in 1×reaction buffer. 15 μL of enzyme and lipid substrate mix were pre-incubated in a Corning (#3573) 384-well, black, non-treated microtiter plate (Corning, N.Y.) for 30 min at 25° C. with a 0.5 μL volume of 50% DMSO and serially diluted compounds prepared in 50%-75% DMSO. Lipid kinase reactions were started with the addition of 5 μL of ATP solution, mixed for 15 sec on a rotary plate shaker and incubated for 15-30 minutes at 25° C. Next, reactions were stopped with a 5 μL addition of Stop solution followed by a 5 μL volume of Detection Mix. Stopped reactions were equilibrated for 1 and 18 hrs at room temperature and then read in a Synergy4 plate reader from BioTek (Winooski, Vt.) at λex330-80/λem620-35 and λem665-7.5. At the conclusion of each assay, the HTRF ratio from fluorescence emission values for each well was calculated and % Inhibition determined from averaged controls wells. % Inhibition values for each compound re then plotted against inhibitor concentration to estimate IC50 from log [Inhibitor] vs Response, Variable Slope model in GraphPad Prism from GraphPad Software (San Diego, Calif.).
Reagents Used in Optimized Protocol: • [p120γ]=1-4 nM, [ATP]=50 μM, [di-C8-PIP2]=10 μM • (40625; BPS Bioscience)
On the technique in general: TR-FRET usually uses a lanthanide donor and a delayed reading to cut background.

Assay [2] addresses T2, p110β/p85α (PI3Kβ) (Homo sapiens, UniProt P42338).
T2 construct: purchased Millipore 14-603
Description: HTRF assay, p110β/p85α. In kind it is biochemical. The settings on record: read-out: PI3Kβ HTRF IC50 Inhibition Designation. As for the experimental part: The mechanics of the assay platform are best described by the vendor (Millipore, Billerica, Mass.) on their website at the following URL: http://www.millipore.com/coa/tech1/74jt4z.
Briefly, Stop solution (Stop A, #33-007 and Stop B, #33-009; 3:1 ratio) and Detection Mix (DMC, #33-015 with DMA, #33-011 and DMB, #33-013; 18:1:1 ratio) were prepared as recommended by the manufacturer ˜2 hrs prior to use. […] Lipid kinase reactions were started with the addition of 5 μL of ATP solution, mixed for 15 sec on a rotary plate shaker and incubated for 15-30 minutes at 25° C. Next, reactions were stopped with a 5 μL addition of Stop solution followed by a 5 μL volume of Detection Mix. […] At the conclusion of each assay, the HTRF ratio from fluorescence emission values for each well was calculated and % Inhibition determined from averaged controls wells. % Inhibition values for each compound re then plotted against inhibitor concentration to estimate IC50 from log [Inhibitor] vs Response, Variable Slope model in GraphPad Prism from GraphPad Software (San Diego, Calif.).

In assay [3] the target is T3, HCV NS3 protease WT 1b (Hepatitis C virus genotype 1b, UniProt P26663).
T3 construct: The single-chain proteolytic domain (NS4A21-32-GSGS-NS33-631) was cloned into pET-14b; His tag (own knowledge of vector pET-14b); made in house; host or cells: Escherichia coli BL21
Nature of the assay: MALDI MS of intact HCV protease 1b WT incubated with compound. It is filed as binding. As for the experimental part: Intact HCV (protease) 1bWT was incubated for 1 hr at a 10× fold excess of XVI-26 to protein. 3 ul aliquots of the samples were diluted with 10 ul of 0.1% TFA prior to micro C4 ZipTipping directly onto the MALDI target using Sinapinic acid as the desorption matrix (10 mg/mL in 0.1% TFA:Acetonitrile 50:50). […] Due to likely protein misfolding during protein purification, a small portion of the misfolded protein was not modified.
In order to determine whether the modification of the protein occurred at lysine, the pH from the above experiment was increased from 7.4 to 10.0. Because the compound lysine adduct would be an amide any increase in pH would have minimal effect on the modified protein. If however, the modification occurred at cysteine the resultant thioester bond would be unstable and the compound would hydrolyze off the protein.
Intact HCV (protease) 1bWT, C159S, and C159S/K136A were incubated for 1 hr at a 10× fold excess of XVI-26 to protein. 3 μl aliquots of the samples were diluted with 10 μl of 0.1% TFA prior to micro C4 ZipTipping directly onto the MALDI target using Sinapinic acid as the desorption matrix (10 mg/mL in 0.1% TFA:Acetonitrile 50:50).
Intact HCV (protease) WT1b was incubated for 1 hr at a 10× fold excess of XVI-1 (mw=782.87) to protein. 3 μl aliquots of the samples were diluted with 10 μl of 0.1% TFA prior to micro C4 ZipTipping directly onto the MALDI target using Sinapinic acid as the desorption matrix (10 mg/mL in 0.1% TFA:Acetonitrile 50:50). […] Due to some protein misfolding during the purification of the protein, the unfolded portion of the protein can not react with XVI-1.

Assay [4] has as its target T4, HCV NS3/4A 1b protease enzyme (wild type) (Hepatitis C virus genotype 1b, UniProt P26663).
T4 construct: 10× stocks of NS3/4A protease enzyme from Bioenza (Mountain View, Calif.); purchased Bioenza
Description: HCV protease FRET assay (IC50_APP), wild type NS3/4A 1b. In kind it is biochemical. As for the experimental part:
HCV Protease FRET Assay for WT and Mutated NS3/4A 1b Enzymes (IC50_APP).
The following protocol was used to generate “apparent” IC50 (IC50_APP) values as depicted in Table 6, below. Without wishing to be bound by any particular theory, it is believed that IC50_APP, contrasted with IC50 values, may provide a more useful indication of time-dependent inhibition, and are thus more representative of binding affinity. […] 5 μL of each enzyme were added to Corning (#3575) 384-well, black, microtiter plates (Corning, N.Y.) after spotting a 0.5 μL volume of 50% DMSO and serially diluted compounds prepared in 50% DMSO. Protease reactions were immediately started after enzyme addition with the addition of 45 μL of the FRET substrate and monitored for 60-90 minutes at λex485/λem520 in a Synergy plate reader from BioTek (Winooski, Vt.). At the conclusion of each assay, progress curves from each well were examined for linear reaction kinetics and fit statistics (R^2, 95% confidence intervals, absolute sum of squares). Initial velocity (0 minutes to 15+ minutes) from each reaction was determined from the slope of a plot of relative fluorescence units vs time (minutes) and then plotted against inhibitor concentration as a percent of the no inhibitor and no enzyme controls to estimate apparent IC50 from log [Inhibitor] vs Response. (Variable Slope model in GraphPad Prism from GraphPad Software (San Diego, Calif.).)

As to `CC(C)Oc1c(NCC(=O)N2CCN(Cc3cc4nc(-c5cnc(N)nc5)nc(N5CCOCC5)c4s3)CC2)c(=O)c1=O` [XXII-27, 3-(2-(4-((2-(2-aminopyrimidin-5-yl)-4-morpholinothieno[3,2-d]pyrimidin-6-yl)methyl)piperazin-1-yl)-2-oxoethylamino)-4-isopropoxycyclobut-3-ene-1,2-dione], the IC50 in assay [1] and in assay [2] was 100 to 1000 nM in each case.

For the compound `COC(=O)N1C(=O)CC[C@@H]1C(=O)N1CCN(Cc2cc3nc(-c4cnc(N)nc4)nc(N4CCOCC4)c3s2)CC1` [XXII-28], the 50% inhibitory concentration (IC50) in assay [1] and in assay [2] was 100 to 1000 nM each time.

For the compound `C/C=C/S(=O)(=O)N1CCN(Cc2cc3nc(-c4cnc(N)nc4)nc(N4CCOCC4)c3s2)CC1` [XXII-25, (E)-5-(4-morpholino-6-((4-(prop-1-enylsulfonyl)piperazin-1-yl)methyl)thieno[3,2-d]pyrimidin-2-yl)pyrimidin-2-amine], the IC50 in assay [1] lay within 10 to 100 nM; in assay [2], 100 to 1000 nM.

As for `C=C[C@@H]1C[C@]1(NC(=O)[C@@H]1CC(Oc2nccc3cc(OC)ccc23)CN1C(=O)[C@H](CC(=O)N1C[C@@H]2C[C@H]1C(=O)O2)NC(=O)OC(C)(C)C)C(=O)NS(=O)(=O)C1CC1` (some centres unmarked) [XVI-7], in assay [3], the “MS_HCVNS3_INTACT_NS3 WT 1b 1 HR” value is “H (>50% and ≤70% modification)”. The IC50 in assay [4] was 1 to 10 nM.

For `C=C[C@@H]1C[C@]1(NC(=O)[C@@H]1CC(OC(=O)N2Cc3cccc(F)c3C2)CN1C(=O)[C@H](CCC(=O)N1C[C@H]2C[C@@H]1C(=O)O2)NC(=O)OC(C)(C)C)C(=O)NS(=O)(=O)C1CC1` (stereo partly drawn) [XVI-16, (5S)-1-((S)-2-(tert-butoxycarbonylamino)-5-oxo-5-((1R,4R)-3-oxo-2-oxa-5-azabicyclo[2.2.1]heptan-5-yl)pentanoyl)-5-((1R,2S)-1-(cyclopropylsulfonylcarbamoyl)-2-vinylcyclopropylcarbamoyl)pyrrolidin-3-yl 4-fluoroisoindoline-2-carboxylate], the “MS_HCVNS3_INTACT_NS3 WT 1b 1 HR” value in assay [3] was “H (>50% and ≤70% modification)”. For the same compound, the IC50 in assay [4] was less than 1 nM.

In the case of `C=C[C@@H]1C[C@]1(NC(=O)[C@@H]1C[C@@H](Oc2nccc3cc(OC)ccc23)CN1C(=O)[C@H](CCC(=O)N1CCC1=O)NC(=O)OC(C)(C)C)C(=O)NS(=O)(=O)C1CC1` [XVI-1, tert-butyl (S)-1-((2S,4R)-2-((1R,2S)-1-(cyclopropylsulfonylcarbamoyl)-2-vinylcyclopropylcarbamoyl)-4-(6-methoxyisoquinolin-1-yloxy)pyrrolidin-1-yl)-1,5-dioxo-5-(2-oxoazetidin-1-yl)pentan-2-ylcarbamate], in assay [3] (1 hr, 10× fold excess), the “conversion of HCV NS3 WT1b” value is recorded as roughly 72%. For the same compound, in assay [3] (1 hr, 10× fold excess of compound to protein), the “positive mass shift of HCV 1bWT” value turned out to be 755 Da. In addition, in assay [3], the “MS_HCVNS3_INTACT_NS3 WT 1b 1 HR” value was “G (>70% modification)”. For the same compound, the IC50 in assay [4] was less than 1 nM.

In the case of `O=C1CC[C@H](C(=O)N2CCN(Cc3cc4nc(-c5cccc6[nH]ncc56)nc(N5CCOCC5)c4s3)CC2)O1` [XXII-22], the IC50 in assay [1] and in assay [2] was 100 to 1000 nM each time.

For the compound `CC(C)Oc1c(N2CCN(Cc3cc4nc(-c5cnc(N)nc5)nc(N5CCOCC5)c4s3)CC2)c(=O)c1=O` [XXII-26, 3-(4-((2-(2-aminopyrimidin-5-yl)-4-morpholinothieno[3,2-d]pyrimidin-6-yl)methyl)piperazin-1-yl)-4-isopropoxycyclobut-3-ene-1,2-dione], the IC50 in assay [1] and in assay [2] was 100 to 1000 nM in each case.

On to `Nc1ncc(-c2nc(N3CCOCC3)c3sc(CN4CCN(C(=O)C5CCSC5=O)CC4)cc3n2)cn1` (centres unmarked) [XXII-30, 3-(4-((2-(2-aminopyrimidin-5-yl)-4-morpholinothieno[3,2-d]pyrimidin-6-yl)methyl)piperazine-1-carbonyl)dihydrothiophen-2(3H)-one], for which the IC50 was 10 to 100 nM in assay [1] and 100 to 1000 nM in assay [2].

On to `COC(=O)N1C(=O)CC[C@H]1C(=O)N1CCN(Cc2cc3nc(-c4cnc(N)nc4)nc(N4CCOCC4)c3s2)CC1` [XXII-29, (S)-methyl 2-(4-((2-(2-aminopyrimidin-5-yl)-4-morpholinothieno[3,2-d]pyrimidin-6-yl)methyl)piperazine-1-carbonyl)-5-oxopyrrolidine-1-carboxylate], for which the IC50 in assay [1] and in assay [2] was 100 to 1000 nM throughout.

`Nc1ncc(-c2nc(N3CCOCC3)c3sc(CN4CCN(C(=O)C5CCC(=O)S5)CC4)cc3n2)cn1` (centres unmarked) [XXII-32, 5-(4-((2-(2-aminopyrimidin-5-yl)-4-morpholinothieno[3,2-d]pyrimidin-6-yl)methyl)piperazine-1-carbonyl)dihydrothiophen-2(3H)-one]: the IC50 in assay [1] and in assay [2] was 100 to 1000 nM in each case.

Regarding `Nc1ncc(-c2nc(N3CCOCC3)c3sc(CN4CCN(C(=O)C5CSC(=O)C5)CC4)cc3n2)cn1` (centres unmarked) [XXII-31, 4-(4-((2-(2-aminopyrimidin-5-yl)-4-morpholinothieno[3,2-d]pyrimidin-6-yl)methyl)piperazine-1-carbonyl)dihydrothiophen-2(3H)-one], the IC50 in assay [1] and in assay [2] was 100 to 1000 nM throughout.
